Assays:
[1] = test system: panel of 7 AML cell lines; test: Dose-response viability curves, whole panel; assay type: cell-based; settings: mean of the 7 AML cell lines; 48 h
Description: (§1) First, 2 × 10^5 (72 h assays in cell lines (Supplementary File S1)), 3 × 10^5 (48 h assays in cell lines) or 7.5 × 10^5 (primary AML, healthy donor buffy coats) cells per mL were cultured in 96-well plates, and all drugs were added at the indicated concentrations. In α-tocopherol experiments, cells were treated with growing concentrations of α-tocopherol and EDK drugs for 48 h. In the NAC and 3MA experiments, treatment was simultaneous with EDK compounds. In glucose deprivation experiments, cells were cultivated with a standard medium (glucose high, 2 g/L), a standard medium without glucose, or a standard medium with galactose (2 g/L) and without glucose. Cell viability was measured via 7-AAD (eBioscience) exclusion and Hoechst33342 (Sigma-Aldrich, St. Louis, MO, USA) positivity staining via flow cytometry, and the cell count was obtained through volume. In the experiments with the primary cells, analyses were performed inside the blast population as detected via blast gates (CD45^low SSC^int). For solid tumor cell lines, viability was analyzed using CellTiter-Glo® Luminescent Cell Viability Assay (Promega).

A549 = test: Pancancer cell line panel viability; assay type: cell-based; settings: 10 µM, 48 h
Description: as §1
AML cell lines and cell cultures
Cell lines HL-60 (ACC-3), KG-1 (ACC-14), MonoMac-1 (ACC-252), Kasumi-1 […]
obtained from DSMZ. Cell lines THP-1 (TIB-202TM), MCF-7 (HTB-22™), MDA- […]
3216™) and HS-5 (CRL-11882™) were obtained from ATCC. HBL-2 cell line was kindly supplied by Dr. Pérez-Galán (IDIBAPS, Barcelona, Spain). SKM-1 and U937 were kindly provided by Dr. Marcus Buschbeck (IJC, Badalona, Spain). All cell lines were cultured in the conditions indicated by the providers, and were tested for mycoplasma on a monthly basis.
All drugs were resuspended in H2O (Thermo Fischer Scientific), DMSO (Sigma-Aldrich) or ethanol (VWR) according to manufacturer’s specifications. - tocopherol, 3-methyladenine (3MA), arsenic trioxide (ATO) and N-acetyl-L-cysteine (NAC) were purchased from Sigma Aldrich. Chloroquine diphosphate was purchased from Merck. Etoposide and ionomycin were purchased from […]
(1 picture or pasted object on this page, not shown here)

AML cell lines [2] = test: Lysosomal mass with Lysotracker probe; assay type: cell-based; settings: 10 µM, 24 h
Description: Lysosomal mass was determined using Lysotracker DeepRed (Thermo Fisher, Waltham, MA, USA), and analyzed with cytometry and microscopy, as explained previously. The lysosomal activity assays were performed following the guidance of the study that first introduced the Lysosomal Metriq probe. AML cell lines were lentivirally transduced with the pCW57.1 Lysosomal-METRIQ plasmid (Addgene #135401), and selected with puromycin (2 µg/mL). Cells were treated for 3 consecutive days with 3 µg/mL doxycycline (Sigma Aldrich, St. Louis, MO, USA), incubated with the compounds of interest for 24 h, and analyzed in the flow cytometer. Lysosomal activity was measured as the ratio between red fluorescence (acting as an internal control) and green fluorescence (located in the lysosomes and degraded to different degrees depending on the activity of the lysosomal compartment). For the Galectin 3 puncta assay, AML cell lines were lentivirally transduced with the mAG-Gal3 plasmid (Addgene #62734). Treatments and analysis were performed as described elsewhere. Then, 2 × 10^5 cells per ml were pulsed with dextran-rhodamine (0.25 mg/mL) for 24 h, chased for 2 h, treated with EDK compounds at the indicated concentrations for 48 h, attached to poly-L-lysine (50 μg/mL)-coated chambered coverslips (μ-Slide 8 well, Ibidi), imaged in a Zeiss LSM880 microscope, and analyzed with Fiji software.

[3] = test system: intracellular calcium in HL60 cells; test: Calcium mobilization assay (Fura2 probe); assay type: cell-based; settings: 10 µM EDK-87/EDK-88, 50 µM chloroquine
Description: 1,000 cells of AML cell lines or 50,000 primary cells (both AML and lin-depleted UCB) were treated at the indicated concentration for 18 h, and cultured in 1 mL of MethoCult H4034 Optimum (StemCell Technologies, Vancouver, BC, Canada).
Colonies were screened based on morphology and cellularity at day 7 (cell lines) […]
Calcium mobilization assay
1 x 10^6 cells per mL were loaded for 30’ at 37 °C with the Fura-2-AM probe (Thermo Fisher) at a final 2 µM concentration in pre-warmed calcium- and magnesium-free Hanks BSA solution. Cells were then washed and resuspended in Hanks BSA solution with calcium and magnesium at 3 x 10^5 cells per mL. In parallel, 50µL of drugs in Hanks BSA solution with calcium and magnesium were added to 96-well black wall clear bottom plates and background fluorescence […]
Cells were then added to the plate
(50µL/well) and fluorescence was acquired at indicated timepoints using a Synergy HT Multi-Detection Microplate Reader (BioTek). For the analysis, all values were subtracted their corresponding background fluorescence, and the ratio 340/380 was calculated. Finally, ratios were normalized to vehicle-treated […]
Semi-Quantitative Real Time PCR

AML cell lines [4] = test: Seahorse oxygen consumption (OCR); assay type: cell-based; settings: 5 and 10 µM, 24 h
Description: Seahorse studies were performed using the Agilent Seahorse XF Real-Time ATP Rate Assay Kit. […] Cells were washed and suspended in Seahorse medium (Seahorse XF medium with 2 mM glutamine, 10 mM glucose, 2 mM pyruvate) at a concentration of 1.4 × 10^6 (Mono Mac1) and 2.4 × 10^6 (HL60) cells per mL; 50 μL per well were seeded in 96-well Seahorse plates precoated with polylysine, centrifuged, and left to adhere for 20 min at 37 °C before adding prewarmed Seahorse medium to a final volume of 180 μL per well. Basal OCR and ECAR were measured, and the ATP rate assay was performed with the sequential injection of 1.5 μM oligomycin and 0.5 μM rotenone/antimycin A. A detailed description of this protocol was provided by the manufacturers. Mitochondrial ROS was quantified using the MitoSOX Red Mitochondrial Superoxide Indicator (Thermo Fischer Scientific, Waltham, MA, USA), as previously described. The activation of executive caspases was determined using CaspaseGlo® 3/7 Assay (Promega), following the manufacturer’s recommendations. The detection of Annexin-V staining was also described previously.

[5] = Pharmacokinetic study in mice; assay type: in vivo, CD-1 mice; settings: 30 mg/kg orally and subcutaneously
Description: All ADMET studies were performed in Eurofins Discovery Services (CEREP laboratories, Celle-Lévescault France). The pharmacokinetic studies were performed in Draconis Pharma SL (Barcelona, Spain) in CD-1 mice treated with 30 mg/kg EDK87 or EDK88 via SC or OG. Blood was collected by cardiac puncture at 0.5, 1, 2, 4, or 24 h.

- clearance (PK) [5]: high
- plasma level [5]: low
- volume of distribution [5]: high
Structure (SMILES): CN1CCC(=C2c3ccccc3-c3c2sc2ccccc32)CC1 [EDK-87]
- EC50 [1]: 7.7 ± 0.7 µM
- # Live cells refer to control (A549): 74%
- lysosomal mass (Lysotracker) (AML cell lines [2]): expansion of the lysosomal mass
- intracellular calcium mobilization [3]: few changes in calcium release
- oxygen consumption (OCR) (AML cell lines [4]): drastic reduction in oxygen consumption
